Measurements reported in US10548317B2, “Pesticidally active pyrazole derivatives” (SYNGENTA PARTICIPATIONS AG, priority 2015, dated 2020).

Assays:
Format in all cases: in vivo
[1] = tested on: Spodoptera littoralis; assay: Spodoptera littoralis (Egyptian cotton leaf worm) leaf disc spray test; details: foliar, 72 h, application rate of 200 ppm, cotton leaf discs, L1 larvae, 3 days after infestation, read-out: control (at least one of mortality, anti-feedant effect, growth inhibition)
Description: Spodoptera littoralis (Egyptian Cotton Leaf Worm)
Cotton leaf discs were placed on agar in 24-well microtiter plates and sprayed with aqueous test solutions prepared from 10'000 ppm DMSO stock solutions. After drying the leaf discs were infested with five L1 larvae. The samples were assessed for mortality, anti-feedant effect, and growth inhibition in comparison to untreated samples 3 days after infestation. Control of Spodoptera littoralis by a test sample is when at least one of mortality, anti-feedant effect, and growth inhibition is higher than the untreated sample.

[2] = tested on: Plutella xylostella; assay: Plutella xylostella (diamond back moth) artificial diet test; details: 120 h, application rate of 200 ppm, L2 larvae, 5 days after infestation, read-out: effect in at least one of the two categories (mortality or growth inhibition)
Description: Plutella xylostella (Diamond Back Moth):
24-well microtiter plates with artificial diet were treated with aqueous test solutions prepared from 10'000 ppm DMSO stock solutions by pipetting. After drying, the plates were infested with L2 larvae (10 to 15 per well). The samples were assessed for mortality and growth inhibition in comparison to untreated samples 5 days after infestation. The following compounds gave an effect of at least 80% in at least one of the two categories (mortality or growth inhibition) at an application rate of 200 ppm: 1, 2, 3, 4, 5, 6, 7, 8, 9, 10, 11, 12, 13, 14, 15, 16, 17, 18, 19, 20, 21, 22, 23, 24, 25, 26, 27, 28, 29, 30, 31, 32, 33, 35, 36, 37, 38, 39, 40, 41, 42, 43, 44, 45, 46, 47, 48, 50, 51, 52, 53, 54 and 55.

[3] = tested on: Diabrotica balteata; assay: Diabrotica balteata (corn root worm) maize sprout test; details: 96 h, application rate of 200 ppm, maize sprouts, L2 larvae, 4 days after infestation, read-out: effect in at least one of the two categories (mortality or growth inhibition)
Description: Diabrotica balteata, (Corn Root Worm)
Maize sprouts, placed on an agar layer in 24-well microtiter plates were treated with aqueous test solutions prepared from 10'000 ppm DMSO stock solutions by spraying. After drying, the plates were infested with L2 larvae (6 to 10 per well). The samples were assessed for mortality and growth inhibition in comparison to untreated samples 4 days after infestation. The following compounds gave an effect of at least 80% in at least one of the two categories (mortality or growth inhibition) at an application rate of 200 ppm: 1, 3, 4, 5, 6, 7, 8, 9, 10, 11, 12, 14, 15, 16, 17, 18, 19, 20, 21, 22, 23, 24, 25, 26, 27, 28, 29, 30, 31, 32, 33, 35, 36, 37, 38, 39, 40, 41, 42, 43, 44, 45, 48, 50, 51, 52, 53, 54 and 55.

[4] = tested on: Thrips tabaci; assay: Thrips tabaci (onion thrips) sunflower leaf disc test; details: foliar, 144 h, application rate of 200 ppm, sunflower leaf discs, mixed ages, 6 days after infestation
Description: Thrips tabaci (Onion thrips):
Sunflower leaf discs were placed on agar in 24-well microtiter plates and sprayed with aqueous test solutions prepared from 10'000 ppm DMSO stock solutions. After drying the leaf discs were infested with a thrips population of mixed ages. The samples were assessed for mortality 6 days after infestation.

[5] = tested on: Tetranychus urticae; assay: Tetranychus urticae (two-spotted spider mite) bean leaf disc test; details: foliar, 192 h, application rate of 200 ppm, bean leaf discs, mixed population (mobile stages), 8 days after infestation
Description: Tetranychus urticae (Two-Spotted Spider Mite):
Bean leaf discs on agar in 24-well microtiter plates were sprayed with aqueous test solutions prepared from 10'000 ppm DMSO stock solutions. After drying the leaf discs were infested with a mite population of mixed ages. The samples were assessed for mortality on mixed population (mobile stages) 8 days after infestation.

[6] = tested on: Euschistus heros; assay: Euschistus heros (neotropical brown stink bug) soybean leaf test; details: 120 h, application rate of 200 ppm, soybean leaves, N2 nymphs, 5 days after infestation, read-out: effect in at least one of the two categories (mortality or growth inhibition)
Description: Euschistus heros (Neotropical Brown Stink Bug)
Soybean leaves on agar in 24-well microtiter plates were sprayed with aqueous test solutions prepared from 10'000 ppm DMSO stock solutions. After drying the leaves were infested with N2 nymphs. The samples were assessed for mortality and growth inhibition in comparison to untreated samples 5 days after infestation. The following compounds gave an effect of at least 80% in at least one of the two categories (mortality or growth inhibition) at an application rate of 200 ppm: 3, 4, 5, 6, 9, 10, 12, 14, 15, 16, 17, 18, 20, 24, 27, 28, 29, 31, 32, 33, 36, 37, 38, 42, 43, 45, 50, 52, 53, 54 and 55.

Cn1nc(C(F)(F)C(F)(F)F)c(C(F)(F)F)c1-n1cc(-c2cc(C(=O)NC3CC3)c(Cl)s2)cn1 [Compound 3, 2-chloro-N-cyclopropyl-5-[1-[2-methyl-5-(1,1,2,2,2-pentafluoroethyl)-4-(trifluoromethyl)pyrazol-3-yl]pyrazol-4-yl]thiophene-3-carboxamide]
≥ 80%: control (mortality, anti-feedant effect or growth inhibition) at 200 ppm [1] | percent effect (mortality or growth inhibition) at 200 ppm [2] | percent effect (mortality or growth inhibition) at 200 ppm [3] | mortality at 200 ppm [4] | mortality at 200 ppm [5] | percent effect (mortality or growth inhibition) at 200 ppm [6]

Cn1nc(C(F)(F)C(F)(F)F)c(C(F)(F)F)c1-n1cc(-c2cc(C(=O)NC3(C#N)CC3)c(Cl)s2)cn1 [Compound 4, 2-chloro-N-(1-cyanocyclopropyl)-5-[1-[2-methyl-5-(1,1,2,2,2-pentafluoroethyl)-4-(trifluoromethyl)pyrazol-3-yl]pyrazol-4-yl]thiophene-3-carboxamide]
≥ 80%: control (mortality, anti-feedant effect or growth inhibition) at 200 ppm [1] | percent effect (mortality or growth inhibition) at 200 ppm [2] | percent effect (mortality or growth inhibition) at 200 ppm [3] | mortality at 200 ppm [4] | mortality at 200 ppm [5] | percent effect (mortality or growth inhibition) at 200 ppm [6]

Cn1nc(C(F)(F)C(F)(F)F)c(C(F)(F)F)c1-n1cc(-c2cc(C(=O)NC3(C(N)=O)CC3)c(Cl)s2)cn1 [Compound 5, N-(1-carbamoylcyclopropyl)-2-chloro-5-[1-[2-methyl-5-(1,1,2,2,2-pentafluoroethyl)-4-(trifluoromethyl)pyrazol-3-yl]pyrazol-4-yl]thiophene-3-carboxamide]
≥ 80%: control (mortality, anti-feedant effect or growth inhibition) at 200 ppm [1] | percent effect (mortality or growth inhibition) at 200 ppm [2] | percent effect (mortality or growth inhibition) at 200 ppm [3] | mortality at 200 ppm [4] | mortality at 200 ppm [5] | percent effect (mortality or growth inhibition) at 200 ppm [6]

Cn1nc(C(F)(F)C(F)(F)F)c(C(F)(F)F)c1-n1cc(-c2cc(C(=O)NCC(F)(F)F)c(Cl)s2)cn1 [Compound 14]
≥ 80%: control (mortality, anti-feedant effect or growth inhibition) at 200 ppm [1] | percent effect (mortality or growth inhibition) at 200 ppm [2] | percent effect (mortality or growth inhibition) at 200 ppm [3] | mortality at 200 ppm [4] | percent effect (mortality or growth inhibition) at 200 ppm [6]

Cn1nc(C(F)(F)C(F)(F)F)c(C(F)(F)F)c1-n1cc(-c2cc(C(=O)NC3(c4ccccn4)CC3)c(Cl)s2)cn1 [Compound 15]
≥ 80%: control (mortality, anti-feedant effect or growth inhibition) at 200 ppm [1] | percent effect (mortality or growth inhibition) at 200 ppm [2] | percent effect (mortality or growth inhibition) at 200 ppm [3] | mortality at 200 ppm [5] | percent effect (mortality or growth inhibition) at 200 ppm [6]

Cn1nc(C(F)(F)C(F)(F)F)c(C(F)(F)F)c1-n1cc(-c2cc(C(N)=O)c(Cl)s2)cn1 [Compound 16]
≥ 80%: control (mortality, anti-feedant effect or growth inhibition) at 200 ppm [1] | percent effect (mortality or growth inhibition) at 200 ppm [2] | percent effect (mortality or growth inhibition) at 200 ppm [3] | mortality at 200 ppm [4] | percent effect (mortality or growth inhibition) at 200 ppm [6]

CNC(=O)c1cc(-c2cnn(-c3c(C(F)(F)F)c(C(F)(F)C(F)(F)F)nn3C)c2)sc1Cl [Compound 18]
≥ 80%: control (mortality, anti-feedant effect or growth inhibition) at 200 ppm [1] | percent effect (mortality or growth inhibition) at 200 ppm [2] | percent effect (mortality or growth inhibition) at 200 ppm [3] | mortality at 200 ppm [4] | percent effect (mortality or growth inhibition) at 200 ppm [6]

C=C(F)CNC(=O)c1cc(-c2cnn(-c3c(C(F)(F)F)c(C(F)(F)C(F)(F)F)nn3C)c2)sc1Cl [Compound 24]
≥ 80%: control (mortality, anti-feedant effect or growth inhibition) at 200 ppm [1] | percent effect (mortality or growth inhibition) at 200 ppm [2] | percent effect (mortality or growth inhibition) at 200 ppm [3] | mortality at 200 ppm [4] | percent effect (mortality or growth inhibition) at 200 ppm [6]

Cn1nc(C(F)(F)C(F)(F)F)c(C(F)(F)F)c1-n1cc(-c2cc(C(=O)NCC=C(Cl)Cl)c(Cl)s2)cn1 [Compound 28]
≥ 80%: control (mortality, anti-feedant effect or growth inhibition) at 200 ppm [1] | percent effect (mortality or growth inhibition) at 200 ppm [2] | percent effect (mortality or growth inhibition) at 200 ppm [3] | mortality at 200 ppm [5] | percent effect (mortality or growth inhibition) at 200 ppm [6]

Cn1nc(C(F)(F)C(F)(F)F)c(C(F)(F)F)c1-n1cc(-c2cc(C(=O)NC3CC3F)c(Cl)s2)cn1 (centres unmarked) [Compound 32]
≥ 80%: control (mortality, anti-feedant effect or growth inhibition) at 200 ppm [1] | percent effect (mortality or growth inhibition) at 200 ppm [2] | percent effect (mortality or growth inhibition) at 200 ppm [3] | mortality at 200 ppm [4] | percent effect (mortality or growth inhibition) at 200 ppm [6]

Cn1nc(C(F)(F)C(F)(F)F)c(C(F)(F)F)c1-n1cc(-n2cc(C(=O)NC3CC3)c(C(F)(F)F)c2)cn1 [Compound 45]
≥ 80%: control (mortality, anti-feedant effect or growth inhibition) at 200 ppm [1] | percent effect (mortality or growth inhibition) at 200 ppm [2] | percent effect (mortality or growth inhibition) at 200 ppm [3] | mortality at 200 ppm [4] | percent effect (mortality or growth inhibition) at 200 ppm [6]

Cn1nc(OC(F)(F)C(F)C(F)(F)F)c(C(F)(F)F)c1-n1cc(-c2cc(C(=O)NC3(C#N)CC3)c(Cl)s2)cn1 (centres unmarked) [Compound 52]
≥ 80%: control (mortality, anti-feedant effect or growth inhibition) at 200 ppm [1] | percent effect (mortality or growth inhibition) at 200 ppm [2] | percent effect (mortality or growth inhibition) at 200 ppm [3] | percent effect (mortality or growth inhibition) at 200 ppm [6]

Cn1nc(OC(F)(F)C(F)C(F)(F)F)c(C(F)(F)F)c1-n1cc(-c2cc(C(=O)NC3CC3)c(Cl)s2)cn1 (centres unmarked) [Compound 53]
≥ 80%: control (mortality, anti-feedant effect or growth inhibition) at 200 ppm [1] | percent effect (mortality or growth inhibition) at 200 ppm [2] | percent effect (mortality or growth inhibition) at 200 ppm [3] | percent effect (mortality or growth inhibition) at 200 ppm [6]

Cn1nc(OC(F)(F)C(F)OC(F)(F)F)c(C(F)(F)F)c1-n1cc(-c2cc(C(=O)NC3(C#N)CC3)c(Cl)s2)cn1 (centres unmarked) [Compound 54]
≥ 80%: control (mortality, anti-feedant effect or growth inhibition) at 200 ppm [1] | percent effect (mortality or growth inhibition) at 200 ppm [2] | percent effect (mortality or growth inhibition) at 200 ppm [3] | percent effect (mortality or growth inhibition) at 200 ppm [6]

Cn1nc(OC(F)(F)C(F)OC(F)(F)F)c(C(F)(F)F)c1-n1cc(-c2cc(C(=O)NC3CC3)c(Cl)s2)cn1 (centres unmarked) [Compound 55]
≥ 80%: control (mortality, anti-feedant effect or growth inhibition) at 200 ppm [1] | percent effect (mortality or growth inhibition) at 200 ppm [2] | percent effect (mortality or growth inhibition) at 200 ppm [3] | percent effect (mortality or growth inhibition) at 200 ppm [6]
